Test results published in ChEMBL document CHEMBL4342475, “Structure-Bioactivity Relationships of Lapatinib Derived Analogs against Schistosoma mansoni” (ACS Med Chem Lett, 2020).
Active and inactive are the calls of the source. The calls are words filed in the database; no cut-off is given here.

Tests used:
[1] = tested on: Schistosoma mansoni; assay: Antiparasitic activity against Schistosoma mansoni infected in Hamster assessed as severity score at 10 uM incubated for 24 hrs; format: functional, organism-based
[2] = Cytotoxicity against human HepG2 cells assessed as reduction in cell viability 48 hrs by MTT assay; format: cell-based; conditions: read-out: TC50
[3] = tested on: Schistosoma mansoni; assay: Antiparasitic activity against Schistosoma mansoni infected in Hamster assessed as severity score at 10 uM incubated for 5 hrs; format: functional, organism-based
[4] = tested on: Schistosoma mansoni; assay: Antiparasitic activity against Schistosoma mansoni infected in Hamster assessed as severity score at 10 uM incubated for 1 hr; format: functional, organism-based
[5] = tested on: Schistosoma mansoni; assay: Antiparasitic activity against Schistosoma mansoni infected in Hamster assessed as severity score at 10 uM incubated for 48 hrs; format: functional, organism-based

COc1ccc(NC(=O)c2ccc(-c3cnc(N4CCN(C)CC4)nc3)cc2O)cc1Cl
Activity [1]: inactive | CC50 at 48 h [2]: 27 µM | Activity [3]: inactive | Activity [4]: inactive

CCN1CCCN(c2ncc(-c3ccc4c(Nc5cnccn5)ccnc4c3)cn2)CC1
Activity [1]: inactive | CC50 at 48 h [2]: > 36 µM | Activity [3]: inactive | Activity [5]: inactive | Activity [4]: inactive

Cc1cnc(Nc2ccnc3cc(-c4cnc(N5CCN(C)CC5)nc4)ccc23)cn1
Activity [1]: Active | CC50 at 48 h [2]: 16 µM | Activity [3]: Active | Activity [5]: Active | Activity [4]: inactive

CN1CCN(c2ncc(-c3ccc4c(NC5CCC(N(C)C)CC5)ccnc4c3)cn2)CC1 (stereo unspecified)
Activity [1]: inactive | Activity [3]: inactive | Activity [5]: inactive | Activity [4]: inactive

CN1CCCN(c2ncc(-c3ccc4c(Nc5cnccn5)ccnc4c3)cn2)CC1
Activity [1]: inactive | Activity [3]: inactive | Activity [5]: inactive | Activity [4]: inactive

CN1CCN(c2ncc(-c3ccc4c(NCC5CCOCC5)ccnc4c3)cn2)CC1
Activity [1]: inactive | Activity [3]: inactive | Activity [5]: inactive | Activity [4]: inactive

CN1CCCN(S(=O)(=O)c2ccc(-c3ccc4c(Nc5ccc(Cl)cn5)ccnc4c3)cc2)CC1
Activity [1]: inactive | CC50 at 48 h [2]: 1.8 µM | Activity [3]: inactive | Activity [5]: inactive | Activity [4]: inactive

O=C(O)CN1CCN(c2ncc(-c3ccc4c(Nc5cnccn5)ccnc4c3)cn2)CC1
Activity [1]: inactive | CC50 at 48 h [2]: > 30 µM | Activity [3]: inactive | Activity [5]: inactive | Activity [4]: inactive

CCCN1CCCN(c2ncc(-c3ccc4c(Nc5cnccn5)ccnc4c3)cn2)CC1
Activity [1]: inactive | CC50 at 48 h [2]: 17 µM | Activity [3]: inactive | Activity [5]: inactive | Activity [4]: inactive

Cc1ccc2[nH]c3c4ccc(-c5cnc(N6CCCN(C)CC6)nc5)cc4ncc3c2c1
Activity [1]: Active | CC50 at 48 h [2]: 4.7 µM | Activity [3]: Active | Activity [5]: Active

CN1CCN(c2ncc(-c3ccc4c(NCCN5CCCC5)ccnc4c3)cn2)CC1
Activity [1]: inactive | Activity [3]: inactive | Activity [5]: inactive | Activity [4]: inactive

c1cc(-c2ccc3c(c2)ncc2c4ccccc4[nH]c32)cc(N2CCOCC2)c1
Activity [1]: inactive | CC50 at 48 h [2]: 40 µM | Activity [3]: inactive | Activity [5]: inactive | Activity [4]: inactive

COc1ccc(NC(=O)c2ccc(-c3cccc(N4CCOCC4)c3)cc2O)cc1Cl
CC50 at 48 h [2]: 35 µM | Activity [3]: inactive | Activity [5]: Active

COC(=O)C1CCCN1c1ncc(-c2ccc3c(Nc4cnccn4)ccnc3c2)cn1 (stereo unspecified)
Activity [3]: inactive | Activity [5]: Active | Activity [4]: inactive

COc1ccc(Nc2ccnc3cc(-c4cnc(N5CCCN(C)CC5)nc4)ccc23)cc1Cl
Activity [1]: Active | CC50 at 48 h [2]: 6.8 µM | Activity [3]: inactive | Activity [5]: Active | Activity [4]: inactive

COc1ccc(Nc2ccnc3cc(-c4ccc(S(=O)(=O)N5CCCN(C)CC5)cc4)ccc23)cc1Cl
Activity [1]: inactive | CC50 at 48 h [2]: 11 µM | Activity [3]: inactive | Activity [5]: inactive | Activity [4]: inactive

CN1CCCN(c2ncc(-c3ccc4c(c3)ncc3c5ccccc5[nH]c43)cn2)CC1
Activity [1]: inactive | CC50 at 48 h [2]: 7.4 µM | Activity [3]: inactive | Activity [5]: Active | Activity [4]: inactive

Cc1c(-c2cnc(N3CCN(C)CC3)nc2)ccc2c(Nc3cnccn3)ccnc12
Activity [1]: inactive | Activity [3]: inactive | Activity [5]: inactive | Activity [4]: inactive

COc1ccc(NC(=O)c2ccc(-c3ccc(S(=O)(=O)N4CCN(C)CC4)cc3)cc2O)cc1Cl
Activity [1]: inactive | CC50 at 48 h [2]: > 29 µM | Activity [3]: inactive | Activity [4]: inactive

CN1CCN(c2ncc(-c3ccc4c(Nc5cnccn5)ccnc4c3)cn2)CC1
Activity [1]: inactive | Activity [3]: inactive | Activity [5]: inactive | Activity [4]: inactive

CCN1CCN(c2ncc(-c3ccc4c(Nc5cnccn5)ccnc4c3)cn2)CC1
Activity [1]: inactive | Activity [3]: inactive | Activity [5]: inactive | Activity [4]: inactive

Cc1cnc(Nc2ccnc3cc(-c4cnc(N5CCCN(C)CC5)nc4)ccc23)cn1
Activity [3]: inactive | Activity [5]: Active | Activity [4]: inactive

CCCN1CCN(c2ncc(-c3ccc4c(Nc5cnccn5)ccnc4c3)cn2)CC1
Activity [1]: inactive | Activity [3]: inactive | Activity [5]: Active | Activity [4]: inactive

CN1CCN(c2ncc(-c3ccc4c(NC5CCOCC5)ccnc4c3)cn2)CC1
Activity [1]: inactive | Activity [3]: inactive | Activity [5]: inactive | Activity [4]: inactive

COc1ccc(NC(=O)c2ccc(-c3cccc(N4CCOCC4)c3)cc2N)cc1Cl
Activity [1]: inactive | CC50 at 48 h [2]: 35 µM | Activity [3]: inactive | Activity [5]: inactive | Activity [4]: inactive

CN1CCCN(c2ncc(-c3ccc4c(Nc5ccncn5)ccnc4c3)cn2)CC1
Activity [1]: inactive | CC50 at 48 h [2]: > 37 µM | Activity [3]: inactive | Activity [5]: inactive | Activity [4]: inactive

CC(C)(C)OC(=O)N1CCN(c2ncc(-c3ccc4c(Nc5cnccn5)ccnc4c3)cn2)CC1
Activity [1]: inactive | Activity [3]: inactive | Activity [5]: inactive | Activity [4]: inactive

CN1C[C@H]2C[C@@H]1CN2c1ncc(-c2ccc3c(Nc4cnccn4)ccnc3c2)cn1
Activity [1]: inactive | Activity [3]: inactive | Activity [5]: inactive | Activity [4]: inactive

c1cnc(Nc2ccnc3cc(-c4cnc(N5CCCNCC5)nc4)ccc23)cn1
Activity [1]: inactive | CC50 at 48 h [2]: 25 µM | Activity [3]: inactive | Activity [5]: inactive | Activity [4]: inactive

CN(CCNc1ncc(-c2ccc3c(Nc4cnccn4)ccnc3c2)cn1)C(=O)OC(C)(C)C
Activity [1]: inactive | Activity [3]: inactive | Activity [5]: Active | Activity [4]: inactive

O=C(O)C1CCCN1c1ncc(-c2ccc3c(Nc4cnccn4)ccnc3c2)cn1 (stereo unspecified)
Activity [1]: inactive | Activity [3]: inactive | Activity [5]: inactive | Activity [4]: inactive

COc1ccc(NC(=O)c2ccc(-c3cnc(N4CCCN(C)CC4)nc3)cc2O)cc1Cl
Activity [1]: inactive | Activity [3]: inactive | Activity [5]: Active | Activity [4]: inactive

CN1CCN(c2ncc(-c3ccc4c(N[C@@H]5CCCC[C@H]5O)ccnc4c3)cn2)CC1
Activity [1]: inactive | Activity [3]: inactive | Activity [5]: inactive | Activity [4]: inactive
